Test results as given in PubChem BioAssay (NCI).
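Cells were grown in 96-well plates and exposed to each compound for 48 hours at five concentrations; endpoints were interpolated linearly between bracketing concentrations, or set to the highest concentration if not reached. GI50 = concentration required for 50% inhibition of growth. TGI denotes the concentration required for complete inhibition of growth.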

How the values were obtained:
Assay in all cases: DTP human tumour cell line panel, 48 h
SW-620 colon = system: SW-620 colon
RPMI-8226 leukemia = system: RPMI-8226 leukemia
OVCAR-4 ovarian = system: OVCAR-4 ovarian
NCI-H522 lung = system: NCI-H522 lung
EKVX NSCLC = system: EKVX NSCLC
HT29 colon = system: HT29 colon
MALME-3M melanoma = system: MALME-3M melanoma
SF-539 CNS = system: SF-539 CNS
SR leukemia = system: SR leukemia
SNB-19 CNS = system: SNB-19 CNS
A549 NSCLC = system: A549 NSCLC
A498 renal = system: A498 renal
CAKI-1 renal = system: CAKI-1 renal
UO-31 renal = system: UO-31 renal
SF-295 CNS = system: SF-295 CNS
CCRF-CEM leukemia = system: CCRF-CEM leukemia
TK-10 renal = system: TK-10 renal
OVCAR-3 ovarian = system: OVCAR-3 ovarian
SF-268 CNS = system: SF-268 CNS
SK-MEL-5 melanoma = system: SK-MEL-5 melanoma
SN12C renal = system: SN12C renal
ACHN renal = system: ACHN renal
NCI/ADR-RES ovarian = system: NCI/ADR-RES ovarian
NCI-H23 lung = system: NCI-H23 lung
UACC-257 melanoma = system: UACC-257 melanoma
HOP-62 NSCLC = system: HOP-62 NSCLC
SK-MEL-2 melanoma = system: SK-MEL-2 melanoma
SK-MEL-28 melanoma = system: SK-MEL-28 melanoma
SK-OV-3 ovarian = system: SK-OV-3 ovarian
COLO 205 colon = system: COLO 205 colon
K-562 leukemia = system: K-562 leukemia
OVCAR-8 ovarian = system: OVCAR-8 ovarian
MOLT-4 leukemia = system: MOLT-4 leukemia
NCI-H226 lung = system: NCI-H226 lung
HS 578T breast = system: HS 578T breast
PC-3 prostate = system: PC-3 prostate
MDA-MB-231 breast = system: MDA-MB-231 breast
DU-145 prostate = system: DU-145 prostate
KM12 colon = system: KM12 colon
HCT-15 colon = system: HCT-15 colon
T-47D breast = system: T-47D breast
UACC-62 melanoma = system: UACC-62 melanoma
NCI-H460 lung = system: NCI-H460 lung
HL-60(TB) leukemia = system: HL-60(TB) leukemia
MDA-MB-435 = system: MDA-MB-435
HOP-92 NSCLC = system: HOP-92 NSCLC
OVCAR-5 ovarian = system: OVCAR-5 ovarian
U251 CNS = system: U251 CNS
SNB-75 CNS = system: SNB-75 CNS
MCF7 breast = system: MCF7 breast

`COc1ccc(/C=C/C(=O)c2ccc(-n3cc(CN4CCN(c5cc6c(cc5F)c(=O)c(C(=O)O)cn6C5CC5)CC4)nn3)cc2)cc1OC` was tested, and the GI50 (SW-620 colon) was 1.37 µM, the TGI (SW-620 colon) was 6.98 µM and the GI50 (RPMI-8226 leukemia) was 0.401 µM. It also gave a TGI (RPMI-8226 leukemia) of 4.46 µM, a GI50 (OVCAR-4 ovarian) of 3.94 µM and a TGI (OVCAR-4 ovarian) of 15.5 µM. It also gave a GI50 (NCI-H522 lung) of 4.25 µM, a TGI (NCI-H522 lung) of over 100 µM and a GI50 (EKVX NSCLC) of 4.24 µM. It also gave a TGI (EKVX NSCLC) of over 100 µM, a GI50 (HT29 colon) of 1.24 µM and a TGI (HT29 colon) of over 100 µM. The GI50 (MALME-3M melanoma) was 2.59 µM, the TGI (MALME-3M melanoma) was 8.41 µM and the GI50 (SF-539 CNS) was 1.91 µM. For the same compound, the TGI (SF-539 CNS) was 4.39 µM, the GI50 (SR leukemia) was 0.434 µM and the TGI (SR leukemia) was over 100 µM. The GI50 (SNB-19 CNS) was 4.52 µM, the TGI (SNB-19 CNS) was 66.7 µM and the GI50 (A549 NSCLC) was 2.98 µM. For the same compound, the TGI (A549 NSCLC) was over 100 µM, the GI50 (A498 renal) was 4.18 µM and the TGI (A498 renal) was 14.4 µM. The GI50 (CAKI-1 renal) was 5.1 µM, the TGI (CAKI-1 renal) was 19 µM and the GI50 (UO-31 renal) was 1.73 µM. It also gave a TGI (UO-31 renal) of 9.01 µM, a GI50 (SF-295 CNS) of 2.91 µM and a TGI (SF-295 CNS) of over 100 µM. For the same compound, the GI50 (CCRF-CEM leukemia) was 2.63 µM, the TGI (CCRF-CEM leukemia) was over 100 µM and the GI50 (TK-10 renal) was 5.61 µM. For the same compound, the TGI (TK-10 renal) was over 100 µM, the GI50 (OVCAR-3 ovarian) was 1.84 µM and the TGI (OVCAR-3 ovarian) was 4.93 µM. The GI50 (SF-268 CNS) was 3.09 µM, the TGI (SF-268 CNS) was over 100 µM and the GI50 (SK-MEL-5 melanoma) was 2.64 µM. It also gave a TGI (SK-MEL-5 melanoma) of 7.74 µM, a GI50 (SN12C renal) of 2.66 µM and a TGI (SN12C renal) of 10 µM. For the same compound, the GI50 (ACHN renal) was 3.5 µM, the TGI (ACHN renal) was 45.2 µM and the GI50 (NCI/ADR-RES ovarian) was over 100 µM. It also gave a TGI (NCI/ADR-RES ovarian) of over 100 µM, a GI50 (NCI-H23 lung) of 2.97 µM and a TGI (NCI-H23 lung) of 22.3 µM. The GI50 (UACC-257 melanoma) was 6.34 µM, the TGI (UACC-257 melanoma) was over 100 µM and the GI50 (HOP-62 NSCLC) was 2.49 µM. The TGI (HOP-62 NSCLC) was over 100 µM, the GI50 (SK-MEL-2 melanoma) was 21.1 µM and the TGI (SK-MEL-2 melanoma) was over 100 µM. It also gave a GI50 (SK-MEL-28 melanoma) of 2.77 µM, a TGI (SK-MEL-28 melanoma) of 10.4 µM and a GI50 (SK-OV-3 ovarian) of 7.09 µM. The TGI (SK-OV-3 ovarian) was over 100 µM, the GI50 (COLO 205 colon) was 5.09 µM and the TGI (COLO 205 colon) was over 100 µM. For the same compound, the GI50 (K-562 leukemia) was 0.977 µM, the TGI (K-562 leukemia) was over 100 µM and the GI50 (OVCAR-8 ovarian) was 4.03 µM. The TGI (OVCAR-8 ovarian) was over 100 µM, the GI50 (MOLT-4 leukemia) was 3.32 µM and the TGI (MOLT-4 leukemia) was over 100 µM. It also gave a GI50 (NCI-H226 lung) of 2.39 µM, a TGI (NCI-H226 lung) of 6.63 µM and a GI50 (HS 578T breast) of 3.91 µM. For the same compound, the TGI (HS 578T breast) was over 100 µM, the GI50 (PC-3 prostate) was 2.54 µM and the TGI (PC-3 prostate) was 15.7 µM. For the same compound, the GI50 (MDA-MB-231 breast) was 3.2 µM, the TGI (MDA-MB-231 breast) was over 100 µM and the GI50 (DU-145 prostate) was 3.67 µM. The TGI (DU-145 prostate) was 34.9 µM, the GI50 (KM12 colon) was 1.57 µM and the TGI (KM12 colon) was 4.46 µM. For the same compound, the GI50 (HCT-15 colon) was 2.25 µM, the TGI (HCT-15 colon) was over 100 µM and the GI50 (T-47D breast) was 3.16 µM. It also gave a TGI (T-47D breast) of over 100 µM, a GI50 (UACC-62 melanoma) of 2.83 µM and a TGI (UACC-62 melanoma) of 8.84 µM. The GI50 (NCI-H460 lung) was 2.4 µM, the TGI (NCI-H460 lung) was 6.66 µM and the GI50 (HL-60(TB) leukemia) was 3.18 µM. It also gave a TGI (HL-60(TB) leukemia) of over 100 µM, a GI50 (MDA-MB-435) of 1.49 µM and a TGI (MDA-MB-435) of 4.67 µM. It also gave a GI50 (HOP-92 NSCLC) of 11.7 µM, a TGI (HOP-92 NSCLC) of 38.3 µM and a GI50 (OVCAR-5 ovarian) of 3.7 µM. It also gave a TGI (OVCAR-5 ovarian) of 25.7 µM, a GI50 (U251 CNS) of 1.48 µM and a TGI (U251 CNS) of over 100 µM. It also gave a GI50 (SNB-75 CNS) of 1.49 µM, a TGI (SNB-75 CNS) of 4.29 µM and a GI50 (MCF7 breast) of 0.396 µM. The TGI (MCF7 breast) was over 100 µM.
